Measurements as given in patent US20070117182A1, “Nucleic acids conferring transcriptional responsiveness on the RANKL gene promoter and uses thereof” (Wisconsin Alumni Research Foundation, priority 2005, published 2007).

Assays:
[1] = system: human D5 region (TK-hRLD5); assay: TK-hRLD5 luciferase reporter in MG-63 cells; assay type: cell-based; conditions: 24 hours
Procedure: FIG. 14. […] Cells were treated with the indicated inducers for the periods identified and isolated RNA subjected to PCR analysis for Cyp24, RANKL and b-actin. […] Two different primer sets to the human D5 region were used to assess VDR binding. […] Luciferase activity was analysed 24 hours later. […] Data are the average of triplicate determinations, SEM.
Approximately 1000 bp of the human RANKL gene comprising D5 was cloned and inserted into a TK-luciferase expression vector (TK-hRLD5). […] The D5 RL region and an additional region immediately upstream in both the mouse and human genes contain elements that mediate the actions of parathyroid hormone, a variety of prostaglandins, cytokines such as oncostatin M and IL-6, as well as IL-1 and others.

osteopontin (OPN) = assay: RT-PCR of osteopontin control gene in treated ST2 cells; assay type: cell-based, mouse; conditions: up to 24 hours
Procedure: FIG. 2. Induction of RANKL in ST2 cells by hormones and cytokines. ST2 cells were treated with the agents indicated for periods up to 24 hours. Total RNA was isolated and subjected to RT-PCR using a primer set to mouse RANKL and beta-actin. Positive vitamin D target control genes include Cyp24 and osteopontin (OPN).
The inventors first established a model in which RANKL is both induced in response to 1,25(OH)2D3, PTH (forskolin) and oncostatin M (OSM), and is capable of supporting osteoclast formation when co-cultured with bone marrow monocyte- or spleen cell-derived osteoclast precursors. While a number of cell types express RANKL and induce osteoclastogenesis, the historical literature strongly supports mouse ST2 cells in this capacity, prompting the inventors to focus on this stromal/preosteoblastic line for initial studies. […] Each of these components is known to both induce RANKL expression and promote osteoclast formation as well. […] Indeed, GC effects are widely observed. […] The ability of GCs to enhance osteoclast formation in coculture assays in the presence of 1,25(OH)2D3, however, is likely due also to its coordinate ability to suppress OPG.

[2] = system: RANKL gene upstream regions D1-D5; assay: ChIP analysis of transcription factor binding to the RANKL gene in ST2 cells; assay type: cell-based, mouse; conditions: 6 hours
Procedure: FIG. 4. Confirmation of ChIP/chip data using ChIP. A) Linear arrangement of RANKL locus re-oriented 5′ to 3′ (left to right) indicating the positions of D5 to D1, P2, and P1/TSS. Designation of primer sets used for detection in ChIP is indicated. B) ST2 cells were treated with either vehicle or 1,25(OH)2D3 and then subjected to ChIP using antibodies to VDR, RXR or IgG. Precipitated DNA was evaluated using the primer sets identified in A.
FIG. 5. […] ST2 cells were treated with the above hormones and after 6 hours subjected to ChIP analysis using antibodies to VDR, RXR, GR, C/EBP, β, RNA pol II, and IgG. Precipitated DNA was evaluated for enrichment of the indicated regions of the RANKL gene.
FIG. 10. ChIP analysis of transcription factor binding to RL D5, the TSS and intervening regions of the RANKL locus in response to 1,25(OH)2D3, forskolin and oncostatin M (OSM). ST2 cells were treated for 6 hr with the indicated inducing agents and then subjected to ChIP analysis using antibodies to the indicated factors. Precipitated DNA was analyzed by PCR for enrichment of IS7, D5, IS6 and the TSS of the RANKL gene locus. See text for details of results.
The isolated DNA was then evaluated by PCR using primers as depicted in the diagram seen in FIG. 4a which were designed to amplify small DNA segments within the 5 regions as well as segments located at intervening sites (IS) outside the five regions.
The inventors hypothesized that GC's might perhaps enhance VDR binding to RANKL regulatory regions. […] The inventors focused on the RL-CCL region (D5) and amplified the precipitated DNA using primers to this region of the gene as well as to D4, D3 and TSS and intervening regions. […] The inventors also explored the possibility that C/EBPbeta might similarly participate in the RANKL activation process. C/EBPbeta plays a significant role in the regulation of osteoblastic genes, and is found associated with both 1,25(OH)2D3 and GC target genes.
In addition to 1,25(OH)2D3 and GCs, RANKL expression is also known to be modulated by such factors as PTH, PGE2, the gp130-activating cytokines IL-6 and OSM, as well as IL-1beta and TNFalpha. […] Forskolin was used as substitute for PTH, however, as ST2 cells are deficient in PTH receptor (PTHR). Both PTH/forskolin and PGE2 are known to induce RANKL gene expression via CREB whereas OSM functions via Stat3. […] The inventors therefore explored the possibility that the RL-CCL might represent a focal target for these inducers via either CREB or Stat3 in the RANKL gene locus. ST2 cells were treated with either vehicle, 1,25(OH)2D3, forskolin or OSM for a 6 hour period and then subjected to a ChIP analysis using antibodies to VDR, C/EBPbeta, CREB, phospho-CREB, ATF-2, ATF-4, Stat3, RNA pol II and control IgG. Isolated DNA was then subjected to amplification using primers corresponding to the D5 region (RL-CCL) of the RANKL gene. As controls, the inventors also assessed the extent to which the immunoprecipitations led to the enrichment of DNA at sites surrounding the D5 region of the RANKL gene.

mouse RANKL VDRE = assay: RANKL VDRE in TK promoter, luciferase reporter in ST2 cells; assay type: cell-based
Text: FIG. 8. The mouse RANKL VDRE is inducible by 1,25(OH)2D3. The mouse RANKL VDRE (sequence seen in FIG. 7) was cloned into the TK promoter, transfected into ST2 cells and evaluated for transcriptional regulation by 1,25(OH)2D3. A 10 to 15-fold induction mediated by the RL VDRE is observed. A similar induction is observed in the context of the RL minimal promoter. Data are the average of triplicate determinations, SEM.
ChIP data are of inherent low resolution, making it difficult to identify the specific sequence to which the VDR/RXR heterodimer binds within the RL-CCL. 1,25(OH)2D3-inducibility of the RL-CCL DNA fragment, however, provides the opportunity to precisely map the location of the VDRE using mutagenesis. The inventors therefore subjected the RL-CCL DNA fragment to 5′ deletion analysis using PCR and prepared a series of fragments of the RL-CCL with increasingly fore-shortened 5′ termini as illustrated in FIG. 7a. These RANKL gene fragments were similarly cloned into the pTK-luc vector and their activities together with the wildtype D5 fragment examined in response to 1,25(OH)2D3, glucocorticoids and the combination following transfection into ST2 cells. […] As well, this region of the RL-CCL also contains a number of consensus GR binding half-sites, and at least one consensus GRE duplex site.

[3] = system: mouse D5 region (TK-mRLD5); assay: TK-mRLD5 luciferase reporter in MG-63 cells; assay type: cell-based; conditions: 24 hours

SMILES: C=C1/C(=C\C=C2/CCC[C@]3(C)[C@@H]([C@H](C)CCCC(C)(C)O)CC[C@@H]23)C[C@@H](O)C[C@@H]1O [1,25(OH)2D3]
- activity of human D5 region [1]: induces
- osteopontin (OPN) induction (osteopontin (OPN)): induced in a time-dependent manner
- CREB binding to the D5 region [2]: modestly increased CREB association
- RNA pol II recruitment to D1-D5 sites and TSS [2]: recruited
- Stat3 binding to the D5 region [2]: some Stat3 binding can be seen
- VDR and RXR binding at D1-D5 ([2]; ChIP, -16, -22, -60, -69, -77 kb from TSS): clearly enriched
- VDR binding to RANKL regulatory regions (D5) ([2]; agent alone): induced the binding of the VDR
- induction mediated by the RL VDRE (mouse RANKL VDRE): 10 to 15 fold
- activity of mouse D5 region [3]: induces
